# Laboratory results as given in PubChem BioAssay (NCI).
#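 How tested: cells in 96-well plates exposed to compound for 48 hours at five concentrations. GI50 = concentration required for 50% inhibition of growth. TGI denotes the concentration required for complete inhibition of growth.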
# Legend:
# Test in all cases: DTP human tumour cell line panel, 48 h
# SNB-19 CNS = system: SNB-19 CNS
# NCI-H522 lung = system: NCI-H522 lung
# CCRF-CEM leukemia = system: CCRF-CEM leukemia
# EKVX NSCLC = system: EKVX NSCLC
# MDA-MB-231 breast = system: MDA-MB-231 breast
# COLO 205 colon = system: COLO 205 colon
# NCI-H460 lung = system: NCI-H460 lung
# KM12 colon = system: KM12 colon
# PC-3 prostate = system: PC-3 prostate
# SF-295 CNS = system: SF-295 CNS
# MDA-MB-435 = system: MDA-MB-435
# SW-620 colon = system: SW-620 colon
# OVCAR-8 ovarian = system: OVCAR-8 ovarian
# 786-0 renal = system: 786-0 renal
# OVCAR-3 ovarian = system: OVCAR-3 ovarian
# MALME-3M melanoma = system: MALME-3M melanoma
# SK-MEL-2 melanoma = system: SK-MEL-2 melanoma
# UACC-257 melanoma = system: UACC-257 melanoma
# SK-OV-3 ovarian = system: SK-OV-3 ovarian
# HL-60(TB) leukemia = system: HL-60(TB) leukemia
# SF-539 CNS = system: SF-539 CNS
# ACHN renal = system: ACHN renal
# MOLT-4 leukemia = system: MOLT-4 leukemia
# RPMI-8226 leukemia = system: RPMI-8226 leukemia
# BT-549 breast = system: BT-549 breast
# T-47D breast = system: T-47D breast
# K-562 leukemia = system: K-562 leukemia
# U251 CNS = system: U251 CNS
# RXF 393 renal = system: RXF 393 renal
# HT29 colon = system: HT29 colon
# OVCAR-5 ovarian = system: OVCAR-5 ovarian
# NCI-H23 lung = system: NCI-H23 lung
# LOX IMVI melanoma = system: LOX IMVI melanoma
# SF-268 CNS = system: SF-268 CNS
# NCI/ADR-RES ovarian = system: NCI/ADR-RES ovarian
# SNB-75 CNS = system: SNB-75 CNS
# HOP-92 NSCLC = system: HOP-92 NSCLC
# A498 renal = system: A498 renal
# HS 578T breast = system: HS 578T breast
# SR leukemia = system: SR leukemia
# CAKI-1 renal = system: CAKI-1 renal
# IGROV1 ovarian = system: IGROV1 ovarian
# TK-10 renal = system: TK-10 renal
# MCF7 breast = system: MCF7 breast
# NCI-H226 lung = system: NCI-H226 lung
# SK-MEL-28 melanoma = system: SK-MEL-28 melanoma
# HOP-62 NSCLC = system: HOP-62 NSCLC
# M14 melanoma = system: M14 melanoma
# HCT-15 colon = system: HCT-15 colon
# HCC-2998 colon = system: HCC-2998 colon
# OVCAR-4 ovarian = system: OVCAR-4 ovarian
# SK-MEL-5 melanoma = system: SK-MEL-5 melanoma
# A549 NSCLC = system: A549 NSCLC
# HCT-116 colon = system: HCT-116 colon
# UO-31 renal = system: UO-31 renal
# DU-145 prostate = system: DU-145 prostate
# SN12C renal = system: SN12C renal
# UACC-62 melanoma = system: UACC-62 melanoma
structure (smiles),measurement,setting,value
O=C(NNc1nc2cc(F)cc(F)c2n2cccc12)c1ccncn1,GI50,SNB-19 CNS,> 30 µM
same,TGI,SNB-19 CNS,> 30 µM
same,GI50,NCI-H522 lung,> 30 µM
same,TGI,NCI-H522 lung,> 30 µM
same,GI50,CCRF-CEM leukemia,> 30 µM
same,TGI,CCRF-CEM leukemia,> 30 µM
same,GI50,EKVX NSCLC,> 30 µM
same,TGI,EKVX NSCLC,> 30 µM
same,GI50,MDA-MB-231 breast,> 30 µM
same,TGI,MDA-MB-231 breast,> 30 µM
same,GI50,COLO 205 colon,> 30 µM
same,TGI,COLO 205 colon,> 30 µM
same,GI50,NCI-H460 lung,> 30 µM
same,TGI,NCI-H460 lung,> 30 µM
same,GI50,KM12 colon,> 30 µM
same,TGI,KM12 colon,> 30 µM
same,GI50,PC-3 prostate,> 30 µM
same,TGI,PC-3 prostate,> 30 µM
same,GI50,SF-295 CNS,> 30 µM
same,TGI,SF-295 CNS,> 30 µM
same,GI50,MDA-MB-435,> 30 µM
same,TGI,MDA-MB-435,> 30 µM
same,GI50,SW-620 colon,> 30 µM
same,TGI,SW-620 colon,> 30 µM
same,GI50,OVCAR-8 ovarian,> 30 µM
same,TGI,OVCAR-8 ovarian,> 30 µM
same,GI50,786-0 renal,> 30 µM
same,TGI,786-0 renal,> 30 µM
same,GI50,OVCAR-3 ovarian,> 30 µM
same,TGI,OVCAR-3 ovarian,> 30 µM
same,GI50,MALME-3M melanoma,> 30 µM
same,TGI,MALME-3M melanoma,> 30 µM
same,GI50,SK-MEL-2 melanoma,> 30 µM
same,TGI,SK-MEL-2 melanoma,> 30 µM
same,GI50,UACC-257 melanoma,> 30 µM
same,TGI,UACC-257 melanoma,> 30 µM
same,GI50,SK-OV-3 ovarian,> 30 µM
same,TGI,SK-OV-3 ovarian,> 30 µM
same,GI50,HL-60(TB) leukemia,> 30 µM
same,TGI,HL-60(TB) leukemia,> 30 µM
same,GI50,SF-539 CNS,> 30 µM
same,TGI,SF-539 CNS,> 30 µM
same,GI50,ACHN renal,> 30 µM
same,TGI,ACHN renal,> 30 µM
same,GI50,MOLT-4 leukemia,> 30 µM
same,TGI,MOLT-4 leukemia,> 30 µM
same,GI50,RPMI-8226 leukemia,> 30 µM
same,TGI,RPMI-8226 leukemia,> 30 µM
same,GI50,BT-549 breast,> 30 µM
same,TGI,BT-549 breast,> 30 µM
same,GI50,T-47D breast,> 30 µM
same,TGI,T-47D breast,> 30 µM
same,GI50,K-562 leukemia,> 30 µM
same,TGI,K-562 leukemia,> 30 µM
same,GI50,U251 CNS,> 30 µM
same,TGI,U251 CNS,> 30 µM
same,GI50,RXF 393 renal,> 30 µM
same,TGI,RXF 393 renal,> 30 µM
same,GI50,HT29 colon,> 30 µM
same,TGI,HT29 colon,> 30 µM
same,GI50,OVCAR-5 ovarian,> 30 µM
same,TGI,OVCAR-5 ovarian,> 30 µM
same,GI50,NCI-H23 lung,> 30 µM
same,TGI,NCI-H23 lung,> 30 µM
same,GI50,LOX IMVI melanoma,> 30 µM
same,TGI,LOX IMVI melanoma,> 30 µM
same,GI50,SF-268 CNS,> 30 µM
same,TGI,SF-268 CNS,> 30 µM
same,GI50,NCI/ADR-RES ovarian,> 30 µM
same,TGI,NCI/ADR-RES ovarian,> 30 µM
same,GI50,SNB-75 CNS,> 30 µM
same,TGI,SNB-75 CNS,> 30 µM
same,GI50,HOP-92 NSCLC,> 30 µM
same,TGI,HOP-92 NSCLC,> 30 µM
same,GI50,A498 renal,> 30 µM
same,TGI,A498 renal,> 30 µM
same,GI50,HS 578T breast,> 30 µM
same,TGI,HS 578T breast,> 30 µM
same,GI50,SR leukemia,> 30 µM
same,TGI,SR leukemia,> 30 µM
same,GI50,CAKI-1 renal,> 30 µM
same,TGI,CAKI-1 renal,> 30 µM
same,GI50,IGROV1 ovarian,> 30 µM
same,TGI,IGROV1 ovarian,> 30 µM
same,GI50,TK-10 renal,> 30 µM
same,TGI,TK-10 renal,> 30 µM
same,GI50,MCF7 breast,> 30 µM
same,TGI,MCF7 breast,> 30 µM
same,GI50,NCI-H226 lung,> 30 µM
same,TGI,NCI-H226 lung,> 30 µM
same,GI50,SK-MEL-28 melanoma,> 30 µM
same,TGI,SK-MEL-28 melanoma,> 30 µM
same,GI50,HOP-62 NSCLC,> 30 µM
same,TGI,HOP-62 NSCLC,> 30 µM
same,GI50,M14 melanoma,> 30 µM
same,TGI,M14 melanoma,> 30 µM
same,GI50,HCT-15 colon,> 30 µM
same,TGI,HCT-15 colon,> 30 µM
same,GI50,HCC-2998 colon,> 30 µM
same,TGI,HCC-2998 colon,> 30 µM
same,GI50,OVCAR-4 ovarian,> 30 µM
same,TGI,OVCAR-4 ovarian,> 30 µM
same,GI50,SK-MEL-5 melanoma,> 30 µM
same,TGI,SK-MEL-5 melanoma,> 30 µM
same,GI50,A549 NSCLC,> 30 µM
same,TGI,A549 NSCLC,> 30 µM
same,GI50,HCT-116 colon,> 30 µM
same,TGI,HCT-116 colon,> 30 µM
same,GI50,UO-31 renal,> 30 µM
same,TGI,UO-31 renal,> 30 µM
same,GI50,DU-145 prostate,> 30 µM
same,TGI,DU-145 prostate,> 30 µM
same,GI50,SN12C renal,> 30 µM
same,TGI,SN12C renal,> 30 µM
same,GI50,UACC-62 melanoma,> 30 µM
same,TGI,UACC-62 melanoma,> 30 µM
